Experiment: xn = mol fraction of the nth substance listed
Conditions: 101 kPa, Liquid

OCCO [1,2-ethanediol] + O
Conditions	mass density [kg/m3]	viscosity [mPa·s]
293.15 K, x1 = 0.0312	1011.7	1.337
293.15 K, x1 = 0.0676	1024.6	1.785
293.15 K, x1 = 0.1105	1037.2	2.272
293.15 K, x1 = 0.162	1051.3	2.951
293.15 K, x1 = 0.2248	1064.8	3.941
293.15 K, x1 = 0.3031	1076.7	5.102
293.15 K, x1 = 0.4036	1087.8	6.898
293.15 K, x1 = 0.537	1097.8	9.696
293.15 K, x1 = 0.723	1105.7	14.04
293.15 K, x1 = 1	1113.7	20.83
303.15 K, x1 = 0.0312	1006.1	1.047
303.15 K, x1 = 0.0676	1018.4	1.331
303.15 K, x1 = 0.1105	1030	1.694
303.15 K, x1 = 0.162	1043.4	2.2
303.15 K, x1 = 0.2248	1056.2	2.832
303.15 K, x1 = 0.3031	1067.5	3.728
303.15 K, x1 = 0.4036	1078	4.955
303.15 K, x1 = 0.537	1087	6.749
303.15 K, x1 = 0.723	–	9.399
303.15 K, x1 = 1	–	13.65
313.15 K, x1 = 0.0312	1001.3	0.835
313.15 K, x1 = 0.0676	1010.6	1.022
313.15 K, x1 = 0.1105	1021.9	1.319
313.15 K, x1 = 0.162	1034.7	1.677
313.15 K, x1 = 0.2248	1046.8	2.132
313.15 K, x1 = 0.3031	1057.9	2.756
313.15 K, x1 = 0.4036	1067.9	3.575
313.15 K, x1 = 0.537	1077.1	4.776
313.15 K, x1 = 0.723	1085.8	6.449
313.15 K, x1 = 1	1093.6	9.443
323.15 K, x1 = 0.0312	994.9	0.685
323.15 K, x1 = 0.0676	1005.1	0.868
323.15 K, x1 = 0.1105	1015.1	1.064
323.15 K, x1 = 0.162	1027.4	1.322
323.15 K, x1 = 0.2248	1038.6	1.657
323.15 K, x1 = 0.3031	1049.2	2.113
323.15 K, x1 = 0.4036	1059	2.709
323.15 K, x1 = 0.537	1068	3.593
323.15 K, x1 = 0.723	1076.7	4.837
323.15 K, x1 = 1	1084.7	6.992
333.15 K, x1 = 0.0312	989.8	0.576
333.15 K, x1 = 0.0676	997.9	0.713
333.15 K, x1 = 0.1105	1007.2	0.875
333.15 K, x1 = 0.162	1019.2	1.073
333.15 K, x1 = 0.2248	1030.3	1.312
333.15 K, x1 = 0.3031	1040.6	1.626
333.15 K, x1 = 0.4036	1050.3	2.053
333.15 K, x1 = 0.537	1059.2	2.684
333.15 K, x1 = 0.723	1068	3.51
333.15 K, x1 = 1	1076.4	5.06
343.15 K, x1 = 0.0312	983.7	0.498
343.15 K, x1 = 0.0676	991.5	0.597
343.15 K, x1 = 0.1105	1000.4	0.728
343.15 K, x1 = 0.162	1011.5	0.881
343.15 K, x1 = 0.2248	1022.3	1.071
343.15 K, x1 = 0.3031	1031.9	1.32
343.15 K, x1 = 0.4036	1041.3	1.648
343.15 K, x1 = 0.537	1050.1	2.136
343.15 K, x1 = 0.723	1058.8	2.817
343.15 K, x1 = 1	1067.5	3.987
353.15 K, x1 = 0.0312	977.1	0.434
353.15 K, x1 = 0.0676	984.7	0.525
353.15 K, x1 = 0.1105	993.6	0.629
353.15 K, x1 = 0.162	1003.8	0.758
353.15 K, x1 = 0.2248	1014	0.906
353.15 K, x1 = 0.3031	1023.7	1.1
353.15 K, x1 = 0.4036	1033	1.359
353.15 K, x1 = 0.537	1042	1.748
353.15 K, x1 = 0.723	1050.9	2.296
353.15 K, x1 = 1	1060	3.021

From the NIST ThermoML archive (doi:10.1021/je020140j)
